pKi: −log10 of the molar value. Where a name gives a salt, the structure may show the parent alone. Read-outs that look alike come from different tables or passages of the source.
What was measured:
opioid receptor = biological target: T1, opioid receptor (Mus musculus, UniProt P42866); assay: in vivo; parameters: species or system CF-1 male mice; conditions: sc
T1 construct: Five CF-1 male mice (Charles River, Portage, MI); from tissue; host or cells: living CF-1 male mice (whole animal, endogenous receptor)

[1] = biological target: peripheral opioid receptors (Mus musculus, UniProt P42866); assay: mouse diarrhea test: precipitated diarrhea in morphine-maintained mice (peripheral opioid activity); assay type: in vivo; conditions: mouse diarrhea test, morphine-maintained mice, subcutaneous or oral, 30 min observation
[2] = tested on: peripheral opioid receptors; assay: as above; assay type: in vivo
mu receptor = biological target: T2, mu receptor (Rattus norvegicus, UniProt P33535); assay: Naloxone [3H] opioid receptor binding assay (mu receptor); parameters: species or system rat (male Sprague Dawley)
T2 construct: The brain tissue, rat whole brain minus cerebellum for mu was homogenized; from tissue; host or cells: brain minus cerebellum of male Sprague Dawley rats, homogenate fraction

[3] = mouse writhing test, […], s.c. 20 min before acetic acid, read-out: AD50 (the source's name)
[4] = 20 min, pH 7.4, read-out: % displacement at 10 nM
[5] = 20 min, pH 7.4, read-out: % displacement at 100 nM
[6] = […], rat whole brain minus cerebellum, [3H]naloxone 0.5 nM, pH 7.4, 37° C., 20 min, read-out: Ki
[7] = AD50 mouse writhing / ED50 mouse diarrhea, higher = greater relative peripheral antagonism
[8] = 20 min, pH 7.4, 10 nM test compound, [3H]naloxone 0.5 nM, mu receptor, read-out: % displacement at 10 nM
[9] = 20 min, pH 7.4, 100 nM test compound, [3H]naloxone 0.5 nM, mu receptor, read-out: % displacement at 100 nM
[10] = mouse writhing test, dose of antagonist that reduced inhibition of writhing by 1.25 mg/kg morphine sulfate to 50%, s.c. 20 min before acetic acid, read-out: AD50 (the source's name)

T1 sequence (P42866 whole entry): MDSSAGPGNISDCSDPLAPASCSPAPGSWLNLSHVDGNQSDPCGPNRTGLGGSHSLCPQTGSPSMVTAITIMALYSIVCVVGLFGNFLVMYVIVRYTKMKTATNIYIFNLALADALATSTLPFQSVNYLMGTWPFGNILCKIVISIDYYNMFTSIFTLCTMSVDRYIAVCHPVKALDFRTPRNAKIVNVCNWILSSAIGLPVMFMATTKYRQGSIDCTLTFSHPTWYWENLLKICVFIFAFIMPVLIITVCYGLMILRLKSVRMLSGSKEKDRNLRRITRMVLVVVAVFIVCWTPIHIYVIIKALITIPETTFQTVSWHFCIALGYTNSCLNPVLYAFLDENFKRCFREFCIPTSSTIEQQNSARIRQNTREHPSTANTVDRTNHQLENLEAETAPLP
peripheral opioid receptors (Mus musculus, UniProt P42866), sequence (P42866 whole entry): as above
T2 sequence (P33535 whole entry): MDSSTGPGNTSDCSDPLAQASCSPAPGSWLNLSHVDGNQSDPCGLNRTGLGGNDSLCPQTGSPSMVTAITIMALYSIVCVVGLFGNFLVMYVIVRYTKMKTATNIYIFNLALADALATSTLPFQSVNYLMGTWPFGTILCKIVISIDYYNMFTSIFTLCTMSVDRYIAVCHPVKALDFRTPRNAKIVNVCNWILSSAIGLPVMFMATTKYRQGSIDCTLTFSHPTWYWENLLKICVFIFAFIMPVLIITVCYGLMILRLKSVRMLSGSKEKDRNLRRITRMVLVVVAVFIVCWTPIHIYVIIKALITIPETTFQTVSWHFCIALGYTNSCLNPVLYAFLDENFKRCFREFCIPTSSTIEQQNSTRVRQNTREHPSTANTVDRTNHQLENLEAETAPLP

Structure (SMILES) | ED50 (opioid receptor; [3]) | ED50 [1] | Ratio (ratio of AD50 to ED50) ([2]; mouse, in vivo) | inhibition at 0.01 µM (mu receptor; [4]) | inhibition at 0.1 µM (mu receptor; [5]) | pKi (mu receptor; [6]) | ED50 ([1]; 0.5 h, read-out: ED50) | Ratio (ratio of AD50 to ED50) [2, 7] | inhibition at 0.01 µM (mu receptor; [8]) | inhibition at 0.1 µM (mu receptor; [9]) | ED50 (opioid receptor; [10]) | inhibition at 0.01 µM (mu receptor; 20 min, pH 7.4, 10 nM test compound, [3H]naloxone 0.5 nM, […], read-out: % displacement at 10 nM) | ED50 (opioid receptor; mouse, read-out: AD50) | pKi (mu receptor)
C[C@H]1CN(CC(Cc2ccccc2)NC(=O)CCCC(=O)O)CC[C@@]1(C)c1cccc(O)c1 (relative stereo) [Example 15, Trans-5-((2-(4-(3-hydroxyphenyl)-3,4-dimethyl-1-piperidinyl)-1-(D-(phenylmethyl)ethyl)amino))-5-oxopentanoic acid monohydrate] | 1.39 mg/kg | 0.028 mg/kg | 50 | 80% | 99% | 8.53 |  |  |  |  |  |  |  | 
C[C@H]1CN(CCN(C(=O)CCC(=O)O)c2ccccc2)CC[C@@]1(C)c1cccc(O)c1 (relative stereo) [Example 19, 4-((2-(Trans-4-(3-hydroxyphenyl)-3,4-dimethyl-1-piperidinyl)ethyl)phenylamino-4-oxobutanoic acid monohydrate] | 6.3 mg/kg |  |  |  |  |  | 0.082 mg/kg | 77 | 48% | 92% |  |  |  | 
C[C@H]1CN(CCN(C(=O)CC(=O)O)C2CCCCC2)CC[C@@]1(C)c1cccc(O)c1 (relative stereo) [Example 21, 3-(cyclohexyl-(2-(trans-4-(3-hydroxyphenyl)-3,4-dimethyl-1-piperidinyl)ethyl)amino)-3-oxopropanoic acid monohydrate] | 17.1 mg/kg |  |  |  |  |  | 0.073 mg/kg | 71 | 53% | 80% |  |  |  | 
C[C@H]1CN(CCN(C(=O)CCC(=O)O)C2CCCC2)CC[C@@]1(C)c1cccc(O)c1 (relative stereo) [Example 24, 4-(cyclopentyl-2-(trans-4-(3-hydroxyphenyl)-3,4-dimethyl-1-piperidinyl)ethyl)amino)-4-oxobutanoic acid hemihydrate] | 19.2 mg/kg |  |  |  |  |  | 0.62 mg/kg | 31 | 48% | 89% |  |  |  | 
CC(C)CCN(CCN1CC[C@@](C)(c2cccc(O)c2)[C@@H](C)C1)C(=O)CCC(=O)O (relative stereo) [Example 28, 4-(3-methylbutyl-(2-(trans-4-(3-hydroxyphenyl)-3,4-dimethyl-1-piperidinyl)ethyl)amino)-4-oxobutanoic acid monohydrate] |  |  |  |  |  |  | 0.1 mg/kg | > 12 | 67% | 100% | > 1.25 mg/kg |  |  | 
CC(C)CN(CCCN1CC[C@@](C)(c2cccc(O)c2)[C@@H](C)C1)C(=O)CCCC(=O)O (relative stereo) [Example 29, 5-(2-Methylpropyl-(3-(trans-4-(3-hydroxyphenyl)-3,4-dimethyl-1-piperidinyl)propyl)amino)-5-oxopentanoic acid monohydrate] | 7.6 mg/kg |  |  |  |  |  | 0.99 mg/kg | 7.7 | 56% | 88% |  |  |  | 
CCOC(=O)CCCC(=O)N(CCN1CC[C@@](C)(c2cccc(O)c2)[C@@H](C)C1)C1CCCCC1 (relative stereo) [Example 32, 5-(Cyclohexyl-(2-(trans-4-(3-hydroxyphenyl)-3,4-dimethyl-1-piperidinyl)ethyl)amino)-5-oxopentanoic acid ethyl ester monohydrochloride] | 9.4 mg/kg |  |  |  |  |  | 0.16 mg/kg | 59 | 40% | 100% |  |  |  | 
C[C@H]1CN(CCN(C(=O)CC(N)=O)C2CCCCC2)CC[C@@]1(C)c1cccc(O)c1 (relative stereo) [Example 34, N-Cyclohexyl-N-(2-(trans-4-(3-hydroxyphenyl)-3,4-dimethyl-1-piperidinyl)ethyl)propanediamidehydrochloride monohydrate] | 8.2 mg/kg |  |  |  |  |  | 0.39 mg/kg | 21 | 77% | 91% |  |  |  | 
CNC(=O)CC(=O)N(CCN1CC[C@@](C)(c2cccc(O)c2)[C@@H](C)C1)C1CCCCC1 (relative stereo) [Example 36, N-Methyl-3-oxo-3-((2-(trans-4-(3-hydroxyphenyl)-3,4-dimethyl-1-piperidinyl)ethyl)cyclohexylamino)propanamidemonohydrochloride monohydrate] | 2.9 mg/kg | 0.39 mg/kg |  | 85% | 99% | 8.52 |  | 8 |  |  |  |  |  | 
CCOC(=O)CCC(=O)N(CCN1CC[C@@](C)(c2cccc(O)c2)[C@@H](C)C1)C1CCCCC1 (relative stereo) [Example 71] | 3.71 mg/kg | 0.29 mg/kg |  | 78% | 96% | 8.41 |  | 13 |  |  |  |  |  | 
CC(C)COC(=O)CCC(=O)N(CCN1CC[C@@](C)(c2cccc(O)c2)[C@@H](C)C1)C1CCCCC1 (relative stereo) [Example 72] | 5.5 mg/kg |  |  |  |  |  | 0.017 mg/kg | 324 | 73% | 96% |  |  |  | 
C[C@H]1CN(CCN(C(=O)CCC(=O)OCC2CCCCC2)C2CCCCC2)CC[C@@]1(C)c1cccc(O)c1 (relative stereo) [Example 73] | 9.2 mg/kg |  |  |  |  |  | 0.17 mg/kg | 54 | 46% | 88% |  |  |  | 
CCOC(=O)CCC(=O)NC(CCN1CC[C@@](C)(c2cccc(O)c2)[C@@H](C)C1)CC(C)C (single isomer, unassigned) [Example 2A, 4-[[1-[2-[4-(3-hydroxyphenyl)-3,4-dimethyl-1-piperidinyl]-ethyl]-3-methylbutyl)amino]-4-oxobutanoic acid ethyl ester] | 8.4 mg/kg | 0.29 mg/kg |  | 98% | 100% | 9.19 |  | 29 |  |  |  |  |  | 
CC1CN(C[C@H](CC2CCCCC2)NC(=O)CCCC(=O)O)CCC1(C)c1cccc(O)c1 (single isomer, unassigned; (+)) [Example 16] | > 20 mg/kg | 0.12 mg/kg |  | 97% | 100% | 9.02 |  | > 166 |  |  |  |  |  | 
C[C@H]1CN(CCC(NC(=O)C(CCCNC(=N)N[N+](=O)[O-])NC(=O)CCCC(=O)NCc2ccccc2)c2ccccc2)CC[C@@]1(C)c1cccc(O)c1 (single isomer, unassigned; (-)) [Example 8, (-)-N-(1-phenyl-3-(trans-4-(3-hydroxyphenyl)-3,4-dimethyl-1-piperidinyl)propyl)-2-((1,5-dioxo-5-(phenylmethyl)amino)pentyl)amino-5-((imino(nitroamino)methyl)-amino)pentanamide] |  | 0.64 mg/kg |  | 95% | 99% | 9.17 |  | > 2 |  |  | > 1.25 mg/kg |  |  | 
CC(C)C(=O)NCCCC(=O)NC(CCCNC(=N)N[N+](=O)[O-])C(=O)NC(CCN1CC[C@@](C)(c2cccc(O)c2)[C@@H](C)C1)c1ccccc1 (single isomer, unassigned; (-)) [Example 9, (-)-N-(1-phenyl-3-(trans-4-(3-hydroxyphenyl)-3,4-dimethyl-1-piperidinyl)propyl)-2-((1-oxo-4-(2-methyl-1-oxopropyl)amino)butyl)amino-5-((imino(nitroamino)-methyl)amino)pentanamide] |  | 0.25 mg/kg |  |  | 100% | 8.88 |  | > 5 |  |  | > 1.25 mg/kg | 92% |  | 
C[C@H]1CN(CCC(CC2CCCCC2)NC(=O)CCC(=O)O)CC[C@@]1(C)c1cccc(O)c1 (stereo partly drawn) [Example 1, 4-[(3-(4-(3-hydroxyphenyl)-3,4-dimethyl-1-piperidinyl)-1-(cyclohexylmethyl)propyl)amino]-4-oxobutanoic acid monohydrate] |  | 0.01 mg/kg | > 4000 | 72% | 94% |  |  |  |  |  |  |  | > 40 mg/kg | 8.16
C[C@H]1CN(CC(Cc2ccccc2)NC(=O)CCC(=O)O)CC[C@@]1(C)c1cccc(O)c1 (stereo partly drawn) [Example 14] | 21 mg/kg |  |  | 20% | 64% | 7.49 |  | 656 |  |  |  |  |  | 
COC(=O)[C@H](Cc1ccccc1)NC(=O)CCC(=O)N(CCN1CCC(C)(c2cccc(O)c2)C(C)C1)C1CCCCC1 (stereo partly drawn) [Example 41, 2-((1,4-dioxo-4-(cyclohexyl-(2-(trans-4-(3-hydroxyphenyl)-3,4-dimethyl-1-piperidinyl)ethyl)amino)butyl)-amino)-3-phenylpropanoic acid, methyl ester] | 32 mg/kg |  |  | 87% | 99% | 8.61 |  | 74 |  |  |  |  |  | 
COC(=O)CCCC(=O)N[C@@H](CC1CCCCC1)CN1CC[C@](C)(c2cccc(O)c2)[C@H](C)C1 [Example 49] | 9.9 mg/kg | > 10 mg/kg |  | 83% | 97% | 8.09 |  |  |  |  |  |  |  | 

— patent US5159081A, “Intermediates of peripherally selective N-carbonyl-3,4,4-trisubstituted piperidine opioid antagonists” (Eli Lilly and Company, priority 1991, dated 1992)
